Activity calls are given as the source filed them.
Tests used:
[1] = biological target: T1, Ubiquitin-conjugating enzyme E2 N (Homo sapiens, UniProt P61088); type: functional;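 note: Dose-response confirmation in a TR-FRET assay detecting UBC13-driven polyubiquitin chain formation, inhibition measured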
T1 sequence (P61088 whole entry): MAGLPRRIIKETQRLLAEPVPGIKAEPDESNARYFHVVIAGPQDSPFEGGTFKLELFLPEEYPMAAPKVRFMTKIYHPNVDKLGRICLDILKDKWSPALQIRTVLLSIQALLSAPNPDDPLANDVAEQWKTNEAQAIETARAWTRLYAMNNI

[2] = biological target: RNA-editing ligase 1, mitochondrial (Trypanosoma brucei brucei, UniProt P86926); experiment: TbREL1 ligase inhibitors, dose response, biochemical, fluorescence, Trypanosoma brucei (AID 1117295); type: functional
Chain of RNA-editing ligase 1, mitochondrial (P86926 whole entry): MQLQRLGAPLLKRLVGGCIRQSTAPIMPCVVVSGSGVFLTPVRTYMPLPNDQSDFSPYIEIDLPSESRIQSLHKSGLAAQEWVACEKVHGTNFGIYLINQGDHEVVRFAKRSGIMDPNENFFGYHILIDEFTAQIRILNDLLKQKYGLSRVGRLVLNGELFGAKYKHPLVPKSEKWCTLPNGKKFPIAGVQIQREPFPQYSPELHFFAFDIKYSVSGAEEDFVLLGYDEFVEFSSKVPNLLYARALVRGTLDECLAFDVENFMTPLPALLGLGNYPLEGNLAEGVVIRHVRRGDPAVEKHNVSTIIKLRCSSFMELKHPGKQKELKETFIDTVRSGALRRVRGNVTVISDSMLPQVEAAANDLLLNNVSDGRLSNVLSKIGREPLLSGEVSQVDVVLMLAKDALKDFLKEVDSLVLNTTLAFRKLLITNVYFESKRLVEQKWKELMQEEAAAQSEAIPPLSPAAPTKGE

cells [3] = conditions: HEK293
[4] = HepG2 cell cytotoxicity, dose response, cytotoxicity control, ATP luminescence, cherry-pick, set 6 (AID 1053125); type: functional, cell-based
cells [5] = conditions: A549
INS1 = experiment: beta cell apoptosis inhibitors, cytokine rescue, dose response, luminescence, retest (AID 449756); type: functional, cell-based; conditions: Rattus norvegicus;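 note: cell death triggered by IL-1 beta plus TNF-alpha plus IFN-gamma mixture; protective hits raise ATP signal compared with cytokine alone wells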
[6] = Luminescence Cell-Based Dose Retest to Confirm Inhibitors of Cancer Stem Cells. [Related pubchem assays (depositor defined):AID2717, AID2721]; type: functional; conditions: Homo sapiens
[7] = biological target: T2, High affinity choline transporter 1 (Homo sapiens, UniProt Q9GZV3); experiment: CHT activators, dose response, cell-based, 10-point CRC, membrane potential dye (AID 602376); type: functional
T2 sequence (Q9GZV3 whole entry): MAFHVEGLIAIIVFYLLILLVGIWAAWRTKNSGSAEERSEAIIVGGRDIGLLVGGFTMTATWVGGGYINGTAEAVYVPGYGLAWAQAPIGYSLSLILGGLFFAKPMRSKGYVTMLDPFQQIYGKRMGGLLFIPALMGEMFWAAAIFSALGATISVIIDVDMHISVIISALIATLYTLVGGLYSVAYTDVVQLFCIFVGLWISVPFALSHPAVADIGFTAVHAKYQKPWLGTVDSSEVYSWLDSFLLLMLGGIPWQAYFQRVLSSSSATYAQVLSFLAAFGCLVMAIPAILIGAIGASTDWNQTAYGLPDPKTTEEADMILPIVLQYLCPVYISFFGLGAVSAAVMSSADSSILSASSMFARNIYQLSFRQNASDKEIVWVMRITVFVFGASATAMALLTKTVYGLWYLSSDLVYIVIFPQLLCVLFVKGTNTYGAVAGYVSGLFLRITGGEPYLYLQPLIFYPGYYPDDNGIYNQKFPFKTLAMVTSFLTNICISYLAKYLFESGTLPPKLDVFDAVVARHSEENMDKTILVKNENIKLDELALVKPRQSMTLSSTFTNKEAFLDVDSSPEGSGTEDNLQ

CHO-K1 = experiment: (§1) Counterscreen for antagonists of the orexin 1 receptor (OX1R; HCRTR1): Homogeneous time resolved fluorescence (HTRF)-based cell-based dose response assay to identify antagonists of the parental CHO-K1 cell line. [Related pubchem assays (depositor defined):AID434989, AID435008, AID463079, AID485270, AID492963, AID492964, AID492965, AID493232, AID504699, AID504701]; type: functional; conditions: Cricetulus griseus
Orexin receptor type 2 [8] = biological target: T3, Orexin receptor type 2 (Homo sapiens, UniProt O43614); experiment: Counterscreen assay for antagonists of the orexin 1 receptor (OX1R; HCRTR1): Fluorescence-based cell-based dose response assay for antagonists of the orexin 2 receptor (OX2R; HCRTR2), run by assay provider.; type: functional
T3 sequence (O43614 whole entry): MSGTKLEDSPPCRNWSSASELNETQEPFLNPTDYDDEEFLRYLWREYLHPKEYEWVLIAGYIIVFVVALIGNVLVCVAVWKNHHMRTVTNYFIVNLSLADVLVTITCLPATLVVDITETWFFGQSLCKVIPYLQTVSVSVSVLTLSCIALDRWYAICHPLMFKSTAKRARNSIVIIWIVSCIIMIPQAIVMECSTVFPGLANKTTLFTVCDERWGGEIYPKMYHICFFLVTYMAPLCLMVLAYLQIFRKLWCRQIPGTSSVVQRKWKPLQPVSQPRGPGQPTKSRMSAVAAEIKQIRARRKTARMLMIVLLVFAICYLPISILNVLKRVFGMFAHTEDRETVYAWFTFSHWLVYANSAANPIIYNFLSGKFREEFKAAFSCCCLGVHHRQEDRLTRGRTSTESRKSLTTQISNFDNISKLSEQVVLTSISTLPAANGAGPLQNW

[9] = as §1, with “Fluorescence-based” for “Homogeneous time resolved fluorescence (HTRF)-based”, “cell-based high throughput” for “cell-based”, “CHO” for “CHO-K1”; type: functional
Orexin receptor type 2 [10] = biological target: T3, Orexin receptor type 2; experiment: Counterscreen assay for antagonists of the orexin 1 receptor (OX1R; HCRTR1): Homogeneous Time Resolved Fluorescence (HTRF)-based cell-based dose response assay for antagonists of the orexin 2 receptor (OX2R; HCRTR2), run by assay provider.; type: functional
[11] = biological target: T4, Orexin/Hypocretin receptor type 1 (Homo sapiens, UniProt O43613); experiment: Homogeneous Time Resolved Fluorescence (HTRF)-based cell-based high throughput dose response assay for antagonists of the orexin 1 receptor (OX1R; HCRTR1). [Related pubchem assays (depositor defined):AID434989, AID435008, AID463079, AID485270, AID492963, AID492964, AID492965, AID493232, AID504717, AID504718]; type: functional
T4 sequence (O43613 whole entry): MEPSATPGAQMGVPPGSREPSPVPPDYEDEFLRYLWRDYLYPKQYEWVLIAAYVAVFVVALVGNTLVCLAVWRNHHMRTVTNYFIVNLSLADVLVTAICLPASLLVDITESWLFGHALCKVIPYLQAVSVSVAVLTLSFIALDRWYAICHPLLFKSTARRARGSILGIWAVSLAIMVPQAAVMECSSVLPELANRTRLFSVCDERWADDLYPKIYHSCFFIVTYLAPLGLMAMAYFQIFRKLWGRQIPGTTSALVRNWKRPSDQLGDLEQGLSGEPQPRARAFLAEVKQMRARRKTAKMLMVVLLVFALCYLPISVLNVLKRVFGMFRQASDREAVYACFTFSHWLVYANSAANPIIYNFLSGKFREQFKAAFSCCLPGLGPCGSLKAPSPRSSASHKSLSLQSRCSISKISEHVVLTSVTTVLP

[12] = biological target: T4, Orexin/Hypocretin receptor type 1; experiment: Fluorescence-based cell-based high throughput dose response assay for antagonists of the orexin 1 receptor (OX1R; HCRTR1). [Related pubchem assays (depositor defined):AID434989, AID435008, AID463079, AID485270, AID492963, AID492964, AID492965, AID493232, AID504717, AID504718]; type: functional
[13] = biological target: T5, Methionyl-tRNA synthetase, putative (Trypanosoma brucei brucei, UniProt Q38C91); type: functional, Trypanosoma brucei brucei strain 927/4 GUTat10.1
T5 sequence (Q38C91 whole entry): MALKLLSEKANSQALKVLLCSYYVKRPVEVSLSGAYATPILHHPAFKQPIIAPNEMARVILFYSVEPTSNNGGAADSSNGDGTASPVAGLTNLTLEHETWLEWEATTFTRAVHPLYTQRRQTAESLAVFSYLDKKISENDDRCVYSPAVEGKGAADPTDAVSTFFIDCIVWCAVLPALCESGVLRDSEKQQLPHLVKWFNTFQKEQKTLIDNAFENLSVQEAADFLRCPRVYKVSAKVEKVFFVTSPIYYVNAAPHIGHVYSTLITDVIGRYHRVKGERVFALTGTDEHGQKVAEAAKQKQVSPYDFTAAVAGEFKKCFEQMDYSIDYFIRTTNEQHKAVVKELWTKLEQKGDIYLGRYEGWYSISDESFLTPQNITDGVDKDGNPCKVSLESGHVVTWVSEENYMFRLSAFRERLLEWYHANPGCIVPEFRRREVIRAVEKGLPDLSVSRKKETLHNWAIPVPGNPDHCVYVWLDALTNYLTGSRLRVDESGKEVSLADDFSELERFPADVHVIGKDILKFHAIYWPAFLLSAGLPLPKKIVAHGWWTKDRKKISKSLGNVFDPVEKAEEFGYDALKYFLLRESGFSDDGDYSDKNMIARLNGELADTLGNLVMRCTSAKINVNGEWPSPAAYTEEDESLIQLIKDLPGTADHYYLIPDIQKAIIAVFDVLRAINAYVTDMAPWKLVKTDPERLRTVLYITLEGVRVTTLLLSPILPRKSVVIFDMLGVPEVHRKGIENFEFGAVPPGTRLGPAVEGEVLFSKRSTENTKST

[14] = Counterscreen for inhibitors of Trypanosoma brucei methionyl tRNA synthetase (MetRS): Luminescence-based cell-based high throughput dose response assay to identify compounds that are cytotoxic to Jurkat human T lymphocyte cells.; type: functional
[15] = biological target: Protein disulfide-isomerase (Homo sapiens, UniProt P07237); experiment: PDI inhibitors, insulin aggregation turbidity, dose response, biochemical, absorbance, cherry-picked samples (AID 602350); type: functional
Chain of Protein disulfide-isomerase (P07237 whole entry): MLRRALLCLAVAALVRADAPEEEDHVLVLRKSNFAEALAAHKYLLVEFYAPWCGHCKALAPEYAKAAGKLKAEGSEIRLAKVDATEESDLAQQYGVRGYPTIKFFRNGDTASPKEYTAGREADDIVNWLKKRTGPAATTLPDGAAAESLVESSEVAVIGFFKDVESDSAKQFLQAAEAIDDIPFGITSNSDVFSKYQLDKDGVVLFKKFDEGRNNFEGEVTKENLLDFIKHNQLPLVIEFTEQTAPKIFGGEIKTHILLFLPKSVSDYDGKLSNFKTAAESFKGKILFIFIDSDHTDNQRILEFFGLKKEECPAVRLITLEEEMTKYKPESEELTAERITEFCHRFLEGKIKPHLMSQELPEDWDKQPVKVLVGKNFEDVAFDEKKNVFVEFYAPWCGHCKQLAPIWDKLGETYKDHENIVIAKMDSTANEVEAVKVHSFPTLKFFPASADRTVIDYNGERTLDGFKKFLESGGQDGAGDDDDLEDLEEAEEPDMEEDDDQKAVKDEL

[16] = biological target: T5, Methionyl-tRNA synthetase, putative; type: functional, Trypanosoma brucei brucei strain 927/4 GUTat10.1; remark: listed apart in the source
[17] = viability loss in Mcl1-dependent HMC-1-8 cells, dose response, selectivity assay for A1 inhibitor project, cell-based, luminescence, dry powder (AID 504415); type: functional; conditions: Homo sapiens

## COc1ccc(C[C@H]2CN3C(=NC[C@@H]3Cc3ccccc3)N2CCNC(=O)CCC2CCCCC2)cc1
[1]
  IC50: > 20 µM (inactive)
[2]
  IC50: > 96.6 µM (inactive)
Cells [3]
  AC50: 13.4 µM (active)
[4]
  AC50: 7.94 µM (active)
Cells [5]
  AC50: 8.94 µM (active)
INS1
  AC50: 5.74 µM (active)
[6]
  AC50: 11.2 µM (active)
[7]
  EC50: 22 µM (active)

## Cc1ccc(-c2cc3nc(-c4ccccc4)cc(N4CCC5(CC4)OCCO5)n3n2)cc1
CHO-K1
  IC50: > 66.2 µM (inactive)
Orexin receptor type 2 [8]
  IC50: 24.9 µM (inactive)
[9]
  IC50: > 49.7 µM (inactive)
Orexin receptor type 2 [10]
  IC50: > 50 µM (inactive)
[11]
  IC50: 5.68 µM (active)
[12]
  IC50: 17.4 µM (inactive)

## C[C@H]1CN([C@@H](C)CO)C(=O)Cc2cc(NC(=O)Nc3ccccc3)ccc2O[C@H]1CN(C)Cc1ccccc1
[13]
  IC50: 21.4 µM (inactive)
[14]
  IC50: 27.8 µM (inactive)
[15]
  AC50: 10.3 µM (active)
[16]
  IC50: 25.1 µM (inactive)

## Cc1ccc(Sc2c([N+](=O)[O-])cnc3ccccc23)cc1
[17]
  AC50: 22.9 µM (active)
